Assay results from the NIST ThermoML archive (doi:10.1021/je700671t).

Assay: xn = mol fraction of the nth substance listed
Conditions: 101 kPa, Liquid; for viscosity: Capillary tube (Ostwald / Ubbelohde) method

CN(C)C=O [dimethylformamide] + O
Conditions	mass density [kg/m3]	viscosity [mPa·s]
283.15 K, x1 = 0.02	1000.31	–
283.15 K, x1 = 0.04	1001.42	–
283.15 K, x1 = 0.06	1002.8	–
283.15 K, x1 = 0.08	1004.13	–
283.15 K, x1 = 0.1	1005.32	–
283.15 K, x1 = 0.2	1007.64	–
283.15 K, x1 = 0.3	1004.4	–
283.15 K, x1 = 0.398	997.83	–
283.15 K, x1 = 0.498	990.56	–
283.15 K, x1 = 0.599	983.02	–
283.15 K, x1 = 0.697	976.07	–
283.15 K, x1 = 0.798	969.84	–
283.15 K, x1 = 1	958.96	–
288.15 K, x1 = 0.02	999.23	–
288.15 K, x1 = 0.04	999.91	–
288.15 K, x1 = 0.06	1000.87	–
288.15 K, x1 = 0.08	1001.82	–
288.15 K, x1 = 0.1	1002.67	–
288.15 K, x1 = 0.2	1003.86	–
288.15 K, x1 = 0.3	1000.1	–
288.15 K, x1 = 0.398	993.31	–
288.15 K, x1 = 0.498	985.94	–
288.15 K, x1 = 0.599	978.36	–
288.15 K, x1 = 0.697	971.37	–
288.15 K, x1 = 0.798	965.11	–
288.15 K, x1 = 1	954.17	–
293.15 K, x1 = 0.02	997.92	1.234
293.15 K, x1 = 0.04	998.2	1.442
293.15 K, x1 = 0.06	998.77	1.656
293.15 K, x1 = 0.08	999.37	1.847
293.15 K, x1 = 0.1	999.9	2.062
293.15 K, x1 = 0.2	1000.01	2.782
293.15 K, x1 = 0.3	995.76	2.954
293.15 K, x1 = 0.398	988.76	2.622
293.15 K, x1 = 0.498	981.3	2.162
293.15 K, x1 = 0.599	973.67	1.713
293.15 K, x1 = 0.697	966.65	1.377
293.15 K, x1 = 0.798	960.37	1.153
293.15 K, x1 = 1	949.39	0.864
298.15 K, x1 = 0.02	996.39	–
298.15 K, x1 = 0.04	996.31	–
298.15 K, x1 = 0.06	996.53	–
298.15 K, x1 = 0.08	996.8	–
298.15 K, x1 = 0.1	997.03	–
298.15 K, x1 = 0.2	996.13	–
298.15 K, x1 = 0.3	991.4	–
298.15 K, x1 = 0.398	984.18	–
298.15 K, x1 = 0.498	976.64	–
298.15 K, x1 = 0.599	968.96	–
298.15 K, x1 = 0.697	961.92	–
298.15 K, x1 = 0.798	955.63	–
298.15 K, x1 = 1	944.6	–
303.15 K, x1 = 0.02	994.67	0.97
303.15 K, x1 = 0.04	994.25	1.114
303.15 K, x1 = 0.06	994.14	1.269
303.15 K, x1 = 0.08	994.11	1.407
303.15 K, x1 = 0.1	994.05	1.55
303.15 K, x1 = 0.2	992.19	2.051
303.15 K, x1 = 0.3	986.99	2.179
303.15 K, x1 = 0.398	979.57	1.979
303.15 K, x1 = 0.498	971.95	1.675
303.15 K, x1 = 0.599	964.24	1.382
303.15 K, x1 = 0.697	957.18	1.149
303.15 K, x1 = 0.798	950.87	0.985
303.15 K, x1 = 1	939.83	0.766
308.15 K, x1 = 0.02	992.74	–
308.15 K, x1 = 0.04	992.03	–
308.15 K, x1 = 0.06	991.61	–
308.15 K, x1 = 0.08	991.29	–
308.15 K, x1 = 0.1	990.98	–
308.15 K, x1 = 0.2	988.2	–
308.15 K, x1 = 0.3	982.55	–
308.15 K, x1 = 0.398	974.94	–
308.15 K, x1 = 0.498	967.24	–
308.15 K, x1 = 0.599	959.49	–
308.15 K, x1 = 0.697	952.42	–
308.15 K, x1 = 0.798	946.1	–
308.15 K, x1 = 1	935.05	–
313.15 K, x1 = 0.02	990.67	0.783
313.15 K, x1 = 0.04	989.66	0.891
313.15 K, x1 = 0.06	988.95	1.003
313.15 K, x1 = 0.08	988.37	1.103
313.15 K, x1 = 0.1	987.8	1.208
313.15 K, x1 = 0.2	984.15	1.564
313.15 K, x1 = 0.3	978.07	1.66
313.15 K, x1 = 0.398	970.26	1.538
313.15 K, x1 = 0.498	962.5	1.337
313.15 K, x1 = 0.599	954.73	1.14
313.15 K, x1 = 0.697	947.64	0.971
313.15 K, x1 = 0.798	941.33	0.847
313.15 K, x1 = 1	930.27	0.684
318.15 K, x1 = 0.02	988.43	–
318.15 K, x1 = 0.04	987.14	–
318.15 K, x1 = 0.06	986.17	–
318.15 K, x1 = 0.08	985.33	–
318.15 K, x1 = 0.1	984.53	–
318.15 K, x1 = 0.2	980.05	–
318.15 K, x1 = 0.3	973.55	–
318.15 K, x1 = 0.398	965.56	–
318.15 K, x1 = 0.498	957.73	–
318.15 K, x1 = 0.599	949.93	–
318.15 K, x1 = 0.697	942.85	–
318.15 K, x1 = 0.798	936.53	–
318.15 K, x1 = 1	925.49	–
323.15 K, x1 = 0.02	986	0.648
323.15 K, x1 = 0.04	984.49	0.729
323.15 K, x1 = 0.06	983.26	0.812
323.15 K, x1 = 0.08	982.19	0.892
323.15 K, x1 = 0.1	981.17	0.965
323.15 K, x1 = 0.2	975.89	1.228
323.15 K, x1 = 0.3	968.99	1.3
323.15 K, x1 = 0.398	960.81	1.228
323.15 K, x1 = 0.498	952.92	1.087
323.15 K, x1 = 0.599	945.11	0.961
323.15 K, x1 = 0.697	938.03	0.831
323.15 K, x1 = 0.798	931.73	0.74
323.15 K, x1 = 1	920.71	0.617
328.15 K, x1 = 0.02	983.51	–
328.15 K, x1 = 0.04	981.71	–
328.15 K, x1 = 0.06	980.24	–
328.15 K, x1 = 0.08	978.94	–
328.15 K, x1 = 0.1	977.71	–
328.15 K, x1 = 0.2	971.68	–
328.15 K, x1 = 0.3	964.38	–
328.15 K, x1 = 0.398	956.04	–
328.15 K, x1 = 0.498	948.09	–
328.15 K, x1 = 0.599	940.27	–
328.15 K, x1 = 0.697	933.2	–
328.15 K, x1 = 0.798	926.91	–
328.15 K, x1 = 1	915.92	–
333.15 K, x1 = 0.02	980.84	0.548
333.15 K, x1 = 0.04	978.81	0.613
333.15 K, x1 = 0.06	977.1	0.675
333.15 K, x1 = 0.08	975.59	0.736
333.15 K, x1 = 0.1	974.16	0.792
333.15 K, x1 = 0.2	967.4	0.992
333.15 K, x1 = 0.3	959.73	1.046
333.15 K, x1 = 0.398	951.22	1.001
333.15 K, x1 = 0.498	943.22	0.905
333.15 K, x1 = 0.599	935.4	0.81
333.15 K, x1 = 0.697	928.34	0.722
333.15 K, x1 = 0.798	922.08	0.654
333.15 K, x1 = 1	911.13	0.559
338.15 K, x1 = 0.02	978.04	–
338.15 K, x1 = 0.04	975.81	–
338.15 K, x1 = 0.06	973.86	–
338.15 K, x1 = 0.08	972.14	–
338.15 K, x1 = 0.1	970.51	–
338.15 K, x1 = 0.2	963.07	–
338.15 K, x1 = 0.3	955.03	–
338.15 K, x1 = 0.398	946.36	–
338.15 K, x1 = 0.498	938.32	–
338.15 K, x1 = 0.599	930.49	–
338.15 K, x1 = 0.697	923.46	–
338.15 K, x1 = 0.798	917.22	–
338.15 K, x1 = 1	906.32	–
343.15 K, x1 = 0.02	975.12	0.474
343.15 K, x1 = 0.04	972.66	0.526
343.15 K, x1 = 0.06	970.5	0.575
343.15 K, x1 = 0.08	968.59	0.624
343.15 K, x1 = 0.1	966.78	0.666
343.15 K, x1 = 0.2	958.67	0.821
343.15 K, x1 = 0.3	950.29	0.866
343.15 K, x1 = 0.398	941.46	0.837
343.15 K, x1 = 0.498	933.38	0.764
343.15 K, x1 = 0.599	925.56	0.701
343.15 K, x1 = 0.697	918.55	0.636
343.15 K, x1 = 0.798	912.34	0.583
343.15 K, x1 = 1	901.51	0.51
348.15 K, x1 = 0.02	972.14	–
348.15 K, x1 = 0.04	969.42	–
348.15 K, x1 = 0.06	967.1	–
348.15 K, x1 = 0.08	964.94	–
348.15 K, x1 = 0.1	962.96	–
348.15 K, x1 = 0.2	954.21	–
348.15 K, x1 = 0.3	945.49	–
348.15 K, x1 = 0.398	936.52	–
348.15 K, x1 = 0.498	928.4	–
348.15 K, x1 = 0.599	920.59	–
348.15 K, x1 = 0.697	913.61	–
348.15 K, x1 = 0.798	907.45	–
348.15 K, x1 = 1	896.69	–
353.15 K, x1 = 0.02	968.96	0.417
353.15 K, x1 = 0.04	966.06	0.459
353.15 K, x1 = 0.06	963.53	0.499
353.15 K, x1 = 0.08	961.2	0.539
353.15 K, x1 = 0.1	959.05	0.572
353.15 K, x1 = 0.2	949.69	0.694
353.15 K, x1 = 0.3	940.64	0.727
353.15 K, x1 = 0.398	931.54	0.707
353.15 K, x1 = 0.498	923.39	0.659
353.15 K, x1 = 0.599	915.59	0.614
353.15 K, x1 = 0.697	908.64	0.563
353.15 K, x1 = 0.798	902.52	0.525
353.15 K, x1 = 1	891.86	0.47
